Reference: US7364759B2, “Skin whitening compositions containing black cohosh extract” (Access Business Group International LLC, priority 2003, dated 2008)

Test system: mouse derived immortalized melanocyte cells (M3)
Assay: Suppression of melanogenesis in vitro (modified Dooley assay)
Assay type: cell-based
Conditions: treatment dose 0.100%; treated days 1, 3, 5; melanin extracted day 6, OD 405 nm

Compound: O=C1O[C@H]([C@@H](O)CO)C(O)=C1O [Ascorbic Acid]
- % Control Melanin: 51%
